Measured values from patent US20050119285A1, “Treatment of neurological disorders related to rapid eye movement (REM) sleep disturbances with NPY Y5 receptor antagonists” (Pfizer Inc, priority 2003, published 2005).
Marks after values point to notes of the source that are not given here.

Tested on: adult, male Wistar rats
Experiment: Sleep measurement by EEG in rats (in vivo sleep study)
Set-up: species or system rat
Details: for Maximal change in REM sleep: cumulative time in REM sleep compared to vehicle controls, first 24 hours after dose
Procedure: Sleep measurement by EEG: For the EEG sleep measurements, adult, male Wistar rats were anesthetized and surgically implanted with a cranial implant for chronic electro-encephalogram (EEG) and electromyogram (EMG) recording. At least three weeks were allowed for the animal to recover from surgery. Food and water were available ad libitum and the ambient temperature was 24±1° C. A 24-hr light-dark cycle (LD 12:12) was maintained throughout the study using fluorescent light. Light intensity averaged 35-40 lux at mid-level inside the cage. Animals were undisturbed for two days before and after each treatment. Sleep and wakefulness were determined using a microcomputer-based sleep-wake and physiological monitoring system. The system monitored amplified EEG (×10,000, bandpass 1-30 Hz; digitization rate 100 Hz, integrated EMG (bandpass 10-100 Hz, RMS integration), and telemetered body temperature and non-specific locomotor activity and drinking activity, from 16 rodents simultaneously. Arousal states were classified on-line as NREM sleep, REM sleep, wake, or theta-domihated wake every 10 seconds using EEG period and amplitude feature extraction and ranked membership algorithms. Individually taught EEG-arousal-state templates and EMG criteria differentiated REM sleep from theta-dominated wake. Drinking and locomotor activity were automatically recorded as discrete events every 10 seconds, and body temperature was recorded each minute. Data quality was assured by frequent on-line inspection of the EEG and EMG signals.
Drug Treatment: A NPY Y1 receptor antagonist was administered at 5, 10, 20 or 40 mg/kg in 0.25% methylcellulose vehicle. The NPY Y5 receptor antagonist of Formula la was administered at 5, 10 or 40 mg/kg and the NPY Y5 receptor antagonist of Formula IIa was administered at 10 and 40 mg/kg (both in 32% hydroxypropyl-betacyclodextrin vehicle). Drugs and vehicles were administered by oral gavage. Rats were randomly assigned to receive treatments in […]. The recording duration for the bioassay was 30 hours before and after treatment. At least 7 days “washout” elapsed between each treatment.
Variables recorded by EEG sleep-wake variables included NREM, REM, total sleep, and duration of sleep and wake bouts and were defined and computed as follows: • Wakefulness, NREM sleep, and REM sleep: percent time in state per hour or per 5 minute bin. • Cumulation of total sleep, NREM sleep, REM sleep, locomotor activity, and drink activity: post-treatment accumulated change over baseline. Change—from-baseline scores were computed by subtracting from the post-treatment value the baseline value at the corresponding circadian time. The change-from-baseline scores were then cumulated in hourly bins, and these values were plotted. • Sleep, wakefulness, and REM sleep bouts: The longest bout and the average bout of uninterrupted sleep each hour, measured in minutes. “Interruption” is defined as 3 or more consecutive 10 sec epochs of wakefulness. An analogous quantification is carried out for bouts of wakefulness and REM sleep. […] Pre-clinical measures of sleep bout length are also strong predictors of soporific efficacy in humans. • Locomotor activity: counts per hour or counts per 5 minute bin. • Locomotor activity intensity: locomotor activity counts per minute of EEG-defined wakefulness. This variate allows an assessment of locomotor activity that is independent of the amount of time awake, thus, it may be used to quantify the specificity of a wake- or sleep-promoting effect (Edgar et al. 1997).
Statistical Analysis—Mixed Model: Treatment effects were analyzed by a mixed model for repeated measures data. Mixed models were performed comparing each active-treatment with vehicle. For all models analysis was based on post-treatment hours with each hour adjusted for the corresponding baseline hour. Adjusting for baseline takes into account any differences between groups during baseline. […]

[1] = 5, 10 and 40 mg/kg, oral gavage

O=C1OC2(CCN(C(=O)Nc3ccc(C(F)(F)F)cn3)CC2)c2ccccc21 [Formula Ia]
Effect on NREM sleep [1]: increased NPEM sleep | Effect on REM sleep [1]: significantly reduced REM sleep in a dose-related manner | Effect on sleep continuity (sleep bout length) [1]: increased | Persistence of REM sleep inhibiting and NREM sleep promoting effects (after 40 mg/kg, oral gavage): at least 48 hours | REM sleep inhibiting and NREM sleep promoting effects still observed after dosing (after 40 mg/kg, oral gavage): ≥ 4.5 days | Maximal change in REM sleep (dose 5 (mg/kg), oral gavage): −23.8* minutes | Maximal change in REM sleep (dose 10 (mg/kg), oral gavage): −42.6* minutes | Maximal change in REM sleep (dose 40 (mg/kg), oral gavage): −74.4* minutes | Effect on sleep (REM and NREM) in a laboratory animal (summary statement, no dose given): affected sleep (REM and NREM)
